Test results from patent US20230372273A1, “IONIC LIQUID COMPOSITIONS FOR SKIN DISEASES AND CONDITIONS” (CAGE BIO, INC., priority 2020, published 2023).

Legend:
[1] = biological target: T1, Recombinant human KLK5 (Homo sapiens, UniProt Q9Y337); assay: hKLK5 enzymatic assay; format: biochemical; settings: substrate S-2288, OD 405 nm, 37° C.; read-out: IC50 against hKLK5
T1 construct: purchased Speed Biosystems LLC YS1485
T1 sequence (Q9Y337 23-293): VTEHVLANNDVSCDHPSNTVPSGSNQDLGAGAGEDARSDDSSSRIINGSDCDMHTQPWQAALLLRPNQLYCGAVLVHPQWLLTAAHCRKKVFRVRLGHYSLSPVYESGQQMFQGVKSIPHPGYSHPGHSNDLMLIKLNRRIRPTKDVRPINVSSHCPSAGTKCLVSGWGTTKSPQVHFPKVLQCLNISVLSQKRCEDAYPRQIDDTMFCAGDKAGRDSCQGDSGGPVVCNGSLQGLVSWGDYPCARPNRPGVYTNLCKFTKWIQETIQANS
Method: hKLK5 Enzymatic Assay. Test compound CAGE1:2 (87.07% w/v) was diluted to 0.99 mM and control compound Aprotinin was prepared at 6 μM in di-water. A 2-fold serial dilution was then performed in di-water to generate 10 concentrations for CAGE1:2 (87.07% w/v) and 8 concentrations for Aprotinin which were 2× of the final concentrations in the reaction. Recombinant human KLK5 was purchased from Speed Biosystems LLC (Catalog No. YS1485, Lot No. 0330517, 17.2 μM). The substrate S-2288 was purchased from Diapharma Group, Inc (Catalog No. S820852, Lot No. N0889942).
The assay was carried out in 384-well clear bottom plate coated with 0.1% Tween 20 at 4° C. overnight and washed twice with di-water before usage. 50 μL 2× compound in water was mixed with 25 μL 4× hKLK5 enzyme (120 nM) prepared in 2× reaction buffer (100 mM Tris, pH 8.0, 200 mM NaCl, 0.2% PEG, 0.01% Tween 20, 2 mM EDTA). The enzymatic reaction was initiated by the addition of 25 μL 4× substrate S-2288 (2 mM) in 2× reaction buffer to all wells. OD 405 nm was measured every 30 seconds by SpetraMax 384 Plus at 37° C. for 1 hour.

[2] = tested on: Propionibacterium acnes clinical isolates
[3] = Human cadaver skin permeation (Franz cells); format: in vitro ADME
Method: Human cadaver skin permeation evaluation. Dermatomed full thickness human cadaver skin samples, 250-350 μm, were mounted onto static Franz cells. […] Phosphate buffered saline (PBS), pH 7.4 was used as the receptor medium. CGB400 gel was applied to the stratum corneum side of the skin samples at a dose of 15 μL/cm^2 ( 15 mg/cm^2). The cells were kept in a chamber at 37 C for a period of 24 h. […] in the receptor chamber ensured that the receptor media was well mixed during this time. The receptor media was sampled at 4, 7, and 24 hours to quantify the amount of choline and geranic acid permeation. After 24 hours, the skin surface was washed before removing the stratum corneum (SC) by tape stripping. […] Following SC removal, the epidermis was separated from the dermis using a surgical sterile scalpel and the dermis was cut into pieces. Each layer was collected separately in glass vials containing 2 mL of 50:50 water:methanol mixture and was left to shake overnight to extract the choline and geranic acid. The amount of choline and geranic acid was measured using LC-MS/MS in the wash, epidermis, dermis, and the receptor medium.

[4] = cited from earlier work

Compound	IC50 [1] [mM]	effective concentration for antibacterial activity [2] [mM]	Minimum Inhibitory Concentration (MIC) ([2]; P. acnes isolates, 48 hours)	applied dose penetrated into the dermis [3]	estimated epidermal CAGE concentration [3] [mM]	molar ratio of choline to geranic acid in the epidermis [3]	Log P [4]
Choline geranate [CAGE1:2]	~30	< 0.45	0.025-0.2 % of neat CAGE1:2	About 9.5%	~76	1.18	–
CC(C)=CCC/C(C)=C/C(=O)O [geranic acid, 3,7-dimethyl-2,6-octadienoic acid]	–	–	–	–	–	–	2.8
